Patent publication US5610297A, “Peptides ketoamides” (Georgia Tech Research Corp., priority 1995, dated 1997)
pKi: −log10 of the molar value.

Legend:
cathepsin B = test: Inhibition of cathepsin B; assay type: biochemical; conditions: read-out: KI Cath B
Description: (§1) Materials and Methods. HEPES, heparin, and A23187 were obtained from Calbiochem. Suc-Leu-Tyr-AMC and chromogenic substrates were obtained from Sigma. Calpain I was purified from human erythrocytes according to the method of Kitahara (Kitahara et al., J. Biochem. 95, 1759-1766) omitting the Blue-Sepharose step. Calpain II from rabbit muscle and cathepsin B were purchased from Sigma. Papain was purchased from Calbiochem.
(§2) Assay of Inhibitory Potency. Peptide α-ketoamides were assayed as reversible enzyme inhibitors. Various concentrations of inhibitors in Me2 SO were added to the assay mixture which contained buffer and substrate. The reaction was started by the addition of the enzyme and the hydrolysis rates were followed spectrophotometrically or fluorimetrically.
(§3) Calpain I from human erythrocytes and calpain II from rabbit were assayed using Suc-Leu-Tyr-AMC [Sasaki et al., J. Biol. Chem. 259, 12489-12494 (1984); incorporated herein by reference], and the AMC (7-amino-4-methylcoumarin) release was followed fluorimetrically (excitation at 380 nm, and emmision at 460 nm). Calpains were assayed in 25 mM Tris pH=8.0, 10 mM CaCl2. Fluorescence was followed using a Gilson FL-1A fluorometer or a Perkin-Elmer 203 Fluorescence spectrometer. Cathepsin B was assayed in 20 mM sodium acetate pH=5.2, 0.5 mM dithiothreitol using Bz-Phe-Val-Arg-p-nitroanilide as substrate. Alternately, cathepsin B was assayed with Z-Arg-Arg-AFC [Barrett and Kirschke, Methods Enzymol. 80, 535-561 (1981); incorporated herein by reference], and the AFC (7-amino-4-trifluoromethylcoumarin) release was followed fluorimetrically (excitation at 400 nm and emmision at 505 nm). Papain was assayed in 100 mM KPO4, 1 mM EDTA, 2.5 mM cysteine pH=6.0 using Bz-Arg-AMC or Bz-Arg-NA [Kanaoka et al., Chem. Plmrm. Bull. 25, 3126-3128 (1977); incorporated herein by reference] as a substrate. The AMC (7-amino-4-methylcoumarin) release was followed fluorimetrically (excitation at 380 nm, and emmision at 460 nm). Enzymatic hydrolysis rates were measured at various substrate and inhibitor concentrations, and KI values were determined by either Lineweaver-Burk plots or Dixon plots.
(§4) A 0.1M Hepes, 0.5M NaCl, pH 7.5 buffer was utilized for human leukocyte elastase (HLE), porcine pancreatic elastase (PPE), chymotrypsin and cathepsin G. A 0.1 Hepes, 0.01M CaCl2, pH 7.5 buffer was utilized for trypsin, plasmin, and coagulation enzymes. A 50 mM Tris-HCl, 2 mM EDTA, 5 mM cysteine, pH 7.5 was used as a buffer for papain. A 88 mM KH2 PO4, 12 mM Na2 HPO4, 1.33 mM EDTA, 2.7 mM cysteine, pH 6.0 solution was used as a buffer for cathepsin B. A 20 mM Hepes, 10 mM CaCl2, 10 mM mercatoethanol, pH 7.2 buffer was utilized for calpain I and calpain II.

[1] = target: Calpain II from rabbit muscle; test: Inhibition of calpain II (Suc-Leu-Tyr-AMC hydrolysis); assay type: biochemical
Description: as §1, §2, §3, §4

Half-life in liver = assay type: in vitro ADME; conditions: unit inferred, unit assumed
[2] = target: porcine pancreatic elastase (PPE) (Sus scrofa, UniProt P00772); test: Inhibition of PP elastase (Suc-Ala-Ala-Ala-NA hydrolysis); assay type: biochemical
Description: as §2, §4
(§5) HLE and PPE were assayed with MeO-Suc-Ala-Ala-Pro-Val-NA and Suc-Ala-Ala-Ala-NA, respectively [Nakajima et al., J. Biol. Chem. 254, 4027-4032 (1979); incorporated herein by reference]. Human leukocyte cathepsin G and chymotrypsin Aα were assayed with Suc-Val-Pro-Phe-NA [Tanaka et al., Biochemistry 24, 2040-2047 (1985); incorporated herein by reference]. The hydrolysis of peptide 4-nitroanilides was measured at 410 nm [ε410 =8800 M^-1 cm^-1; Erlanger et al., Arch. Biochem. Biophys. 95, pp 271-278 (1961); incorporated herein by reference]. Trypsin, thrombin, human plasma kallikrein, porcine pancreatic kallikrein, human factor XIa, and human plasmin were assayed with Z-Arg-SBzl or Z-Gly-Arg-SBu-i [McRae et al., Biochemistry 20, 7196-7206 (1981); incorporated herein by reference]. All peptide thioester hydrolysis rates were measured with assay mixtures containing 4,4'-dithiodipyridine [ε324 =19800 M^-1 cm^-1; Grasetti & Murray, Arch. Biochem. Biophys. 119, 41-49 (1967); incorporated herein by reference].

Half-life in plasma = assay type: in vitro ADME; conditions: unit inferred, unit assumed
chymotrypsin = chymotrypsin (Bos taurus, UniProt P00766, DEL14-15/DEL147-148); test: Inhibition of chymotrypsin (Suc-Val-Pro-Phe-NA hydrolysis); assay type: biochemical, bovine
Description: as §2, §4, §5

[3] = system: Calpain-mediated breakdown of spectrin in platelets; test: Platelet membrane permeability assay; assay type: cell-based, rat; parameters: unit not given here; conditions: numeric value, unit not given
Description: Platelet membrane permeability assay. Calpain-mediated breakdown of spectrin was measured by quantitative densitometry of the calpain-specific 150/155 kDa spectrin fragment doublet [see Siman et al., Proc. Natl. Acad. Sci. USA 81, 3572-3576 (1984)]. Platelets were isolated by a modification of the method of Ferrell and Martin [J. Biol. Chem. 264, 20723-20729 (1989)]. Blood (15-20 ml) was drawn from male Sprague-Dawley rats into 1/10th volume of 100 mM EDTA-citrate, and centrifuged 10 minutes at 2000 rpm in a clinical centrifuge at room temperature. […] Platelets were washed once in 15 ml buffer 1, then resuspended to 10^7 cells/ml in buffer 2 (136 mM NaCl, 2.7 mM KCl, 0.42 mM NaH2 PO4, 12 mM NaHCO3, 2mM MgCl, 1 mg/ml BSA (Sigma), 5.6 mM glucose, 20 mM HEPES (Sigma) pH 7.4) and allowed to "rest" for a minimum of 10 minutes at room temperature before use.
Inhibitors were added from stock solutions made fresh in DMSO. 100 μl platelets, suspended to 10^7 cells/ml in buffer 2, were incubated with 1 μl of an inhibitor solution for 5 minutes at room temperature prior to the addition of 2 mM Ca^2+ and 1 uM A23 187. After 10 minutes total exposure to inhibitor (5 minutes exposure to ionophore) at room temperature, platelets were reisolated at 14,000 rpm for 10 sec in a Beckman microfuge, dissolved in SDS-PAGE sample buffer, and heated to 90° C. for 3 minutes.
Samples were subjected to SDS-PAGE in 4-12% gradient mini gels (Novex) and transferred to nitrocellulose (Schleicher and Schuell 0.45 um) by electroblotting. Filters were blocked for 10 minutes in 0.25% gelatin, 1% BSA, 0.25% triton X100, 0.9% NaCl, 10 mM Tris-Cl pH 7.5, incubated overnight in the same solution containing antibody to rat spectrin, washed 3×10 minutes with 10 mM Tris-Cl pH 7.5, 0.5% triton X100, incubated 4 hours in wash buffer plus alkaline phosphatase conjugated goat anti-rabbit antibody (Biorad), and washed as above. Blots were developed using the Biorad AP conjugate substrate kit. Quantitative densitometry was used to obtain values for the intact spectrin bands and the 150/155 kDa breakdown product doublet.

Chain of porcine pancreatic elastase (PPE) (P00772 27-266): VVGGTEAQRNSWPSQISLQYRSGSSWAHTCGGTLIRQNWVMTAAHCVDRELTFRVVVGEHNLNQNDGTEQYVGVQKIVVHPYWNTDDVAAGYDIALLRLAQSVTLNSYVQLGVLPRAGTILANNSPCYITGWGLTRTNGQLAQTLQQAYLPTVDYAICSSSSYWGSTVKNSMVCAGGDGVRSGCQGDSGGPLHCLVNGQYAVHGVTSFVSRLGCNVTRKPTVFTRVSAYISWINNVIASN

| Compound | pKi (cathepsin B) | pKi [1] | t 1/2 liver (Half-life in liver) | pKi [2] | t 1/2 plasma (Half-life in plasma) | pKi (chymotrypsin) | platelet (Activity in the Platelet Assay) [3] |
| --- | --- | --- | --- | --- | --- | --- | --- |
| CCCCNC(=O)C(=O)C(Cc1ccccc1)NC(=O)C(CC(C)C)NC(=O)OCc1ccccc1 (stereo not drawn) [Z--Leu--Phe--CONH--nBu, Z-Leu-Phe-CONH-nBu] | 5.52 | 7.55 | > 1 h | < 4.00 | > 1 h | 5.10 | 38 |
| CCOC(=O)C(=O)C(CC)NC(=O)C(CC(C)C)NC(=O)C(CC(C)C)NC(=O)OCc1ccccc1 (stereo not drawn) [Z--Leu--Leu--Abu--COOEt] |  |  |  |  |  |  | 40 |
| CCC(NC(=O)C(CC(C)C)NC(=O)OCc1ccccc1)C(=O)C(=O)NCC(C)C (stereo not drawn) [Z--Leu--Abu--CONH--iBu, Z-Leu-Abu-CONH-iBu] | 5.40 | 6.85 |  | 4.40 | > 1 h | < 3.52 | 28 |
| CCCCC(NC(=O)C(CC(C)C)NC(=O)OCc1ccccc1)C(=O)C(=O)OCC (stereo not drawn) [Z--Leu--Nle--COOEt] |  |  |  |  | 0.0617 h |  | 20 |
| CCCCOC(=O)C(=O)[C@H](CC)NC(=O)[C@H](CC(C)C)NC(=O)OCc1ccccc1 [Z--Leu--Abu--COOn--Bu] |  |  |  |  |  |  | 28 |
| CCC(NC(=O)C(CC(C)C)NC(=O)OCc1ccccc1)C(=O)C(=O)NCCO (stereo not drawn) [Z--Leu--Abu--CONH--(CH2)2 OH, Z-Leu-Abu-CONH-(CH2)2 OH] |  | 7.11 |  |  |  |  |  |
| CCOC(=O)C(=O)[C@H](CC)NC(=O)[C@H](CC(C)C)NC(=O)OCc1ccccc1 [Z--Leu--Abu--COOEt] |  |  |  |  | 0.0467 h |  | 42 |
| CC(C)CC(NC(=O)OCc1ccccc1)C(=O)NC(Cc1ccccc1)C(=O)C(=O)O (stereo not drawn) [Z--Leu--Phe--COOH] |  |  | > 1 h |  | > 1 h |  | 6.5 |
| CCOC(=O)C(=O)C(CC)NC(=O)C(CC(C)C)NC(=O)C(CC(C)C)NS(=O)(=O)c1ccc2ccccc2c1 (stereo not drawn) [2-NapSO2--Leu--Leu--Abu--COOEt] |  |  |  |  | > 1 h |  | 100 |
| CC[C@H](NC(=O)[C@H](CC(C)C)NC(=O)OCc1ccccc1)C(=O)C(=O)NCCCN1CCOCC1 [Z--Leu--Abu--CONH--(CH2)3 --Mpl, Z-Leu-Abu-CONH-(CH2)3 --N(CH2 CH2)2 O] |  | 7.39 |  |  |  |  |  |
| CC[C@H](NC(=O)[C@H](CC(C)C)NC(=O)OCc1ccccc1)C(=O)C(=O)NCCc1ccccc1 [Z--Leu--Abu--CONH--(CH2)2 --Ph, Z-Leu-Abu-CONH-(CH2)2 Ph] |  | 7.66 |  |  |  |  |  |
| CCCCCCCCNC(=O)C(=O)[C@H](CC)NC(=O)[C@H](CC(C)C)NC(=O)OCc1ccccc1 [Z--Leu--Abu--CONH--(CH2)7 CH3, Z-Leu-Abu-CONH--(CH2)7 CH3] |  | 7.72 |  |  |  |  |  |
| CC(C)CNC(=O)C(=O)[C@H](Cc1ccccc1)NC(=O)[C@H](CC(C)C)NC(=O)OCc1ccccc1 [Z--Leu--Phe--CONH--iBu, Z-Leu-Phe-CONH-iBu] | 5.40 | 7.19 |  |  | > 1 h | 4.62 | 22 |
| CCOC(=O)C(=O)C(Cc1ccccc1)NC(=O)C(CC(C)C)NC(=O)OCc1ccccc1 (stereo not drawn) [Z--Leu--Phe--COOEt, Z-Leu-Phe-COOEt] |  |  |  |  | 0.13 h |  | 42 |
| CCC(NC(=O)C(CC(C)C)NC(=O)OCc1ccccc1)C(=O)C(=O)NCc1ccccc1 (stereo not drawn) [Z--Leu--Abu--CONH--Bzl, Z-Leu-Abu-CONH-Bzl] | 5.70 | 6.46 | > 1 h |  | > 1 h | < 3.52 | 1.5 |
| CCOC(=O)C(=O)[C@H](CC)NC(=O)[C@H](CC(C)C)NC(=O)[C@H](CC(C)C)NC(=O)c1ccc2ccccc2c1 [2-NapCO--Leu--Leu--Abu--COOEt] |  |  |  |  | 0.417 h |  |  |
| CCCC(NC(=O)C(CC(C)C)NC(=O)OCc1ccccc1)C(=O)C(=O)OCC (stereo not drawn) [Z--Leu--Nva--COOEt] |  |  |  |  | 0.0467 h |  | 40 |
| CCCNC(=O)C(=O)[C@H](CC)NC(=O)[C@H](CC(C)C)NC(=O)OCc1ccccc1 [Z--Leu--Abu--CONH--nPr, Z-Leu-Abu-CONH-nPr] | 5.10 | 6.60 | > 1 h | 5.70 | > 1 h | < 3.52 | 70 |
| CCOC(=O)C(=O)[C@H](CC)NC(=O)[C@H](CC(C)C)NC(=O)[C@H](CC(C)C)NS(=O)(=O)c1ccc(C)cc1 [Tos--Leu--Leu--Abu--COOEt] |  |  |  |  | 0.5 h |  | 30 |
| CCC(NC(=O)C(CC(C)C)NC(=O)OCc1ccccc1)C(=O)C(=O)O (stereo not drawn) [Z--Leu--Abu--COOH] |  |  | > 1 h |  | > 1 h |  | 8 |
| CC(C)C[C@H](NC(=O)OCc1ccccc1)C(=O)N[C@@H](Cc1ccccc1)C(=O)C(=O)NCc1ccccc1 [Z--Leu--Phe--CONH--Bzl, Z-Leu-Phe-CONH-Bzl] |  | 7.34 |  |  |  |  |  |
| CC(C)C[C@H](NC(=O)OCc1ccccc1)C(=O)N[C@@H](Cc1ccccc1)C(=O)C(=O)NCCc1ccccc1 [Z--Leu--Phe--CONH(CH2)2 Ph, Z-Leu-Phe-CONH-(CH2)2 Ph] |  | 7.62 |  |  | > 1 h |  | 3.0 |
